Earlier results, collected in patent publication US12636273B2, “Compositions for pathogenesis-directed therapy and treatments of skin diseases and disorders” (YALE UNIVERSITY, priority 2019, dated 2026).

System: CHILD syndrome skin lesions
Settings: topical application

CC(C)CCC[C@@H](C)[C@H]1CC[C@H]2[C@@H]3CC=C4C[C@@H](O)CC[C@]4(C)[C@H]3CC[C@]12C [cholesterol]
effect on skin lesions / phenotype: did not correct the phenotype
